From patent US6482429B1, “Stable powder inhalation dosage formulation” (Boehringer Ingelheim Pharmaceuticals, Inc., priority 2001, dated 2002) come the findings set out here.

Data set [1] in a line: Particle size distribution measured using the Aerosizer with Pulse Jet Disperser. The class given is physicochemical. The conditions noted are these: average of three measurements. An excerpt:
The Pulse Jet Disperser device (Amherst Processing Instruments) was used for powder dispersion. Three measurements were made for each sample and the results were averaged.

Data set [2] in a line: Relative sintering rates under high relative humidity. The class given is physicochemical. To be noted: about 23° C., about one day of exposure, compared with lactose. As to the method: Two experiments were carried out, one at about 85% relative humidity and another at about 95% relative humidity. The experiments ran over several days, but the largest increment occurs fairly early. Both experiments were carried out at room temperature (about 23° C.). […] Sintering of cellobiose is slower. […].

For `O=C[C@H](O)[C@@H](O)[C@H](O[C@@H]1O[C@H](CO)[C@@H](O)[C@H](O)[C@H]1O)[C@H](O)CO` [Cellobiose, cellobiose], in data set [1], the “Mean Particle Size” value was 2.032 μm. In addition, the “Relative sintering rate (difference in number fraction Δf versus particle diameter)” value in data set [2] (approximately 85% relative humidity) and in data set [2] (approximately 93% relative humidity) was “slower” in each case.
Consider `O.OC[C@H]1O[C@@H](O[C@H]2[C@H](O)[C@@H](O)C(O)O[C@@H]2CO)[C@H](O)[C@@H](O)[C@H]1O` (stereo partly shown) [Lactose, lactose monohydrate, reference compound], for which the “Mean Particle Size” value in data set [1] came to 2.044 μm.
